Reference: patent US6348317B1, “Fluorescent and DNA cleavage properties of peptide/dye conjugates” (The Arizona Board of Regents, priority 1999, dated 2002)

Target: fluorescein labeled GRE2 sequence dsDNA (F-GRE2)
Experiment: Total fluorescence quenching (energy transfer) of fluorescein labeled DNA
Type: binding
Experimental: Fluorescence Measurements. Steady state fluorescence anisotropy measurements were carried out in 20 mM Tris (pH 7.9), 30 mM NaCl, 20 mM KCl, 1 mM MgCl2, and 5% glycerol. […] DNA samples used were either the non-labeled sequences shown in FIG. 2 or a fluorescein labeled duplex with a sequence matching GRE2 (FIG. 2).
For fluorescein labeled DNA measurements, the excitation wavelength was 491 nm and the emission was recorded at 521 nm with a 1.0 nm slit width. Titrations were performed holding the concentration of fluorescein-labeled DNA constant and increasing the concentration of TO, ZF or TO-ZF as indicated. To correct for the small amount of background fluorescence from TO in these measurements, control experiments were performed in parallel using DNA that was not fluorescein labeled, but was otherwise identical to the labeled DNA fragments. The thiazole orange fluorescence intensity measured in the control experiments was subtracted from the total fluorescence intensity for each data point. Under the excitation conditions of these measurements, the contribution to fluorescence by TO at 521 nm was less than 5% of the maximum fluorescence signal observed in the experiment. Even at the point in the titration where the maximum quenching of fluorescein fluorescence was observed (the point of lowest total fluorescence in the measurement), less than half of the fluorescence was due to TO, and this could accurately be removed by subtraction of the control value. Each point is an average of 60 measurements, and each titration was performed independently three times.
Total fluorescence data were collected in parallel to the anisotropy measurements and were calculated from raw data as the fluorescence intensity in the vertical plane plus two times the fluorescence intensity of the horizontal plane, (TF=Ivv+2Ivh). These values were used to determine the percent of the maximum fluorescence for each point along the titration and fit to equation 2. [formula] […]
Fluorescence changes upon binding of TO, ZF and TO-ZF to GRE containing duplex DNA. Equilibrium binding of the non-labeled zinc finger (ZF), unconjugated thiazole orange (TO) and thiazole orange-zinc finger conjugate (TO-ZF) to fluorescein labeled GRE2 sequence dsDNA was measured by both fluorescence anisotropy and total fluorescence. […] For fluorescein fluorescence, excitation was at 491 nm and emission was detected at 521 nm. […] Changes in the steady-state anisotropy of the fluorescein fluorescence from the labeled GRE sequence containing DNA (F-GRE2) can arise from two sources. […] By comparison, the amino acid zinc finger Xfin-31 was determined to have a dissociation constant of approximately 1 μM, M. S. Lee, et al., FEBS 279:289-294 (1991), whereas, the 66 amino acid zinc finger from GATA-1 has a dissociation constant of 10 nM. […]

Kd (1 nM F-GRE2, read-out: dissociation constant from quenching curve, two-state binding model): 14 nM
Substance: TO-ZF: 29 amino acid single zinc finger from residues 438-465 of glucocorticoid receptor, thiazole orange coupled to a lysine ε-amine
change in total fluorescein fluorescence over the titration (excitation 491 nm, emission 521 nm): large decreases in steady state fluorescence
